Test results from patent publication US7741327B2 (Hoffmann-La Roche Inc., priority 2008, dated 2010).

What follows are compounds tested against T1, Recombinant human liver GK1 (GST-GK) (Homo sapiens, UniProt P35557) (assay: In vitro glucokinase activity (G6PDH-coupled NADH assay)). Conditions: 30° C., 5 mM D-glucose, 10% DMSO.
T1 construct: made in house; host or cells: E. coli
T1 sequence (P35557 1-466 isoform P35557-2): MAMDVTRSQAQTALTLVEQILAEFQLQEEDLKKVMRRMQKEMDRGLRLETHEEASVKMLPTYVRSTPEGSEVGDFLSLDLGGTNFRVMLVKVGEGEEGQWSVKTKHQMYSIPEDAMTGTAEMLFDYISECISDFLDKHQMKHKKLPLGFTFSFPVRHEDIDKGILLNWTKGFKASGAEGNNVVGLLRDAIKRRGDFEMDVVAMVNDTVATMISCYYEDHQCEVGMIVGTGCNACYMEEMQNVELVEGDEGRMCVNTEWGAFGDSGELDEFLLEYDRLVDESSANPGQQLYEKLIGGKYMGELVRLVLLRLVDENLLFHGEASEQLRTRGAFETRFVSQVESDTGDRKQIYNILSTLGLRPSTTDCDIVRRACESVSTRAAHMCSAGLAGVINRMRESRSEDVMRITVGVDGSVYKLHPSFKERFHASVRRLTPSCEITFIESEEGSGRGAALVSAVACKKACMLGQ
Type: biochemical
Summary of the method: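 Activation measured as the rate of OD340 rise from G6PDH-coupled NADH production, relative to 10% DMSO control, reported as SC1.5 (concentration for 50% activity increase). Conditions: 30° C, pH 7.1 Hepes, 5 mM glucose, 1 mM ATP, purified recombinant GST-human GK1, compound preincubated 10 min before enzyme addition.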
For CC(C)C[C@@H](C(=O)Nc1ccn(C[C@@H](O)CO)n1)N1CC(Oc2ccccc2F)=CC1=O [Example 166, (S)-2-[4-(2-Fluoro-phenoxy)-2-oxo-2,5-dihydro-pyrrol-1-yl]-4-methyl-pentanoic acid [1-((R)-2,3-dihydroxy-propyl)-1H-pyrazol-3-yl]-amide], the “SC1.5 (concentration of activator that produced a 50% increase in the activity of GK)” value was 0.239 µM. With CC(C)C[C@@H](C(=O)Nc1ccn(C[C@@H]2COC(C)(C)O2)n1)N1CC(Oc2cccc(C3CC3)c2F)=CC1=O [Example 146, (S)-2-[4-(3-Cyclopropyl-2-fluoro-phenoxy)-2-oxo-2,5-dihydro-pyrrol-1-yl]-4-methyl-pentanoic acid [1-((R)-2,2-dimethyl-[1,3]dioxolan-4-yl-methyl)-1H-pyrazol-3-yl]-amide] the “SC1.5 (concentration of activator that produced a 50% increase in the activity of GK)” value was 0.21 µM. With Cc1ccccc1OC1=CC(=O)N([C@@H](CC(C)C)C(=O)Nc2ccn(CCO)n2)C1 [Example 122, (S)-4-Methyl-2-(2-oxo-4-o-tolyloxy-2,5-dihydro-pyrrol-1-yl)-pentanoic acid [1-(2-hydroxy-ethyl)-1H-pyrazol-3-yl]-amide] the “SC1.5 (concentration of activator that produced a 50% increase in the activity of GK)” value was 0.56 µM. For CCOc1ccc(F)c(OC2=CC(=O)N([C@@H](CC(C)C)C(=O)Nc3cnc([C@H]4COC(C)(C)O4)cn3)C2)c1F [Example 152, (S)-2-[4-(3-Ethoxy-2,6-difluoro-phenoxy)-2-oxo-2,5-dihydro-pyrrol-1-yl]-4-methyl-pentanoic acid [5-((S)-2,2-dimethyl-[1,3]dioxolan-4-yl)-pyrazin-2-yl]-amide], the “SC1.5 (concentration of activator that produced a 50% increase in the activity of GK)” value was 0.566 µM. For Cc1ccccc1OC1=CC(=O)N([C@@H](CC(C)C)C(=O)Nc2ccn(C[C@@H]3COC(C)(C)O3)n2)C1 [Example 123, (S)-4-Methyl-2-(2-oxo-4-o-tolyloxy-2,5-dihydro-pyrrol-1-yl)-pentanoic acid [1-((R)-2,2-dimethyl-[1,3]dioxolan-4-yl-methyl)-1H-pyrazol-3-yl]-amide], the “SC1.5 (concentration of activator that produced a 50% increase in the activity of GK)” value was 1.294 µM. With Cc1ccccc1OC1=CC(=O)N([C@@H](CC(C)C)C(=O)Nc2ccn(C)n2)C1 [Example 120, (S)-4-Methyl-2-(2-oxo-4-o-tolyloxy-2,5-dihydro-pyrrol-1-yl)-pentanoic acid (1-methyl-1H-pyrazol-3-yl)-amide] the “SC1.5 (concentration of activator that produced a 50% increase in the activity of GK)” value was 0.72 µM. For O=C(O)c1ccc(NC(=O)[C@H](CC2CCCCC2)N2CC(Oc3c(F)ccc(Cl)c3F)=CC2=O)nc1 [Example 74, 6-{(S)-2-[4-(3-Chloro-2,6-difluoro-phenoxy)-2-oxo-2,5-dihydro-pyrrol-1-yl]-3-cyclohexyl-propionylamino}-nicotinic acid], the “SC1.5 (concentration of activator that produced a 50% increase in the activity of GK)” value was 0.055 µM. O=C(Nc1ccn(C[C@@H](O)CO)n1)[C@H](Cc1ccccc1Cl)N1CC(Oc2ccccc2Cl)=CC1=O [Example 189, (S)-2-[4-(2-chloro-phenoxy)-2-oxo-2,5-dihydro-pyrrol-1-yl]-N-[1-((R)-2,3-dihydroxy-propyl)-1H-pyrazol-3-yl]-3-(2-chlorophenyl)-propionamide] was tested, and the “SC1.5 (concentration of activator that produced a 50% increase in the activity of GK)” value was 0.894 µM. CC(C)Oc1ccccc1OC1=CC(=O)N([C@@H](CC2CCCCC2)C(=O)Nc2ccn(CC(C)(C)O)n2)C1 [Example 195, (S)-3-cyclohexyl-N-[1-(2-hydroxy-2-methyl-propyl)-1H-pyrazol-3-yl]-2-[4-(2-isopropoxy-phenoxy)-2-oxo-2,5-dihydro-pyrrol-1yl]-propionamide] was tested, and the “SC1.5 (concentration of activator that produced a 50% increase in the activity of GK)” value was 0.681 µM. CCOC(=O)Cn1ccc(NC(=O)[C@H](CC(C)C)N2CC(Oc3cccc(C4CC4)c3F)=CC2=O)n1 [Example 148, (3-{(S)-2-[4-(3-Cyclopropyl-2-fluoro-phenoxy)-2-oxo-2,5-dihydro-pyrrol-1-yl]-4-methyl-pentanoylamino}-pyrazol-1-yl)-acetic acid ethyl ester] was tested, and the “SC1.5 (concentration of activator that produced a 50% increase in the activity of GK)” value was 0.21 µM. For CC(C)C[C@@H](C(=O)Nc1cnccn1)N1CC(Oc2ccc(C[C@H](O)CO)cc2)=CC1=O [Example 244, (S)-2-{4-[4-((S)-2,3-Dihydroxy-propyl)-phenoxy]-2-oxo-2,5-dihydro-pyrrol-1-yl}-4-methyl-pentanoic acid pyrazin-2-ylamide], the “SC1.5 (concentration of activator that produced a 50% increase in the activity of GK)” value was 0.158 µM. For CC1(C)OC[C@@H](Cn2ccc(NC(=O)[C@H](Cc3ccccc3Cl)N3CC(Oc4ccccc4Cl)=CC3=O)n2)O1 [Example 188, (S)-2-[4-(2-chloro-phenoxy)-2-oxo-2,5-dihydro-pyrrol-1-yl]-N-[1-((R)-2,2-dimethyl-[1,3]dioxolan-4-yl-methyl)-1H-pyrazol-3-yl]-3-(2-chlorophenyl)-propionamide], the “SC1.5 (concentration of activator that produced a 50% increase in the activity of GK)” value was 1.629 µM. CC(C)C[C@@H](C(=O)Nc1ccn(C[C@@H](O)CO)n1)N1CC(Oc2ccc(F)cc2F)=CC1=O [Example 102, (S)-2-[4-(2,4-Difluoro-phenoxy)-2-oxo-2,5-dihydro-pyrrol-1-yl]-4-methyl-pentanoic acid [1-((R)-2,3-dihydroxy-propyl)-1H-pyrazol-3-yl]-amide] was tested, and the “SC1.5 (concentration of activator that produced a 50% increase in the activity of GK)” value was 0.578 µM. COC1=CC(=O)N([C@@H](CC2CCCC2)C(=O)Nc2ccn(Cc3cccc(C#N)c3)n2)C1 [Example 12, (S)-N-[1-(3-Cyano-benzyl)-1H-pyrazol-3-yl]-3-cyclopentyl-2-(4-methoxy-2-oxo-2,5-dihydro-pyrrol-1-yl)-propionamide] was tested, and the “SC1.5 (concentration of activator that produced a 50% increase in the activity of GK)” value was 3.591 µM. In the case of CC(C)C[C@@H](C(=O)Nc1ccn(C[C@@H](O)CO)n1)N1CC(Oc2ccccc2Br)=CC1=O [Example 137, (S)-2-[4-(2-Bromo-phenoxy)-2-oxo-2,5-dihydro-pyrrol-1-yl]-4-methyl-pentanoic acid [1-((R)-2,3-dihydroxy-propyl)-1H-pyrazol-3-yl]-amide], the “SC1.5 (concentration of activator that produced a 50% increase in the activity of GK)” value is reported as 0.26 µM. With CC(C)(O)Cn1ccc(NC(=O)[C@H](CC2CCCCC2)N2CC(Oc3cccc(Br)c3)=CC2=O)n1 [Example 205, (S)-2-[4-(3-bromo-phenoxy)-2-oxo-2,5-dihydro-pyrrol-1-yl]-3-cyclohexyl-N-[1-(2-hydroxy-2-methyl-propyl)-1H-pyrazol-3-yl]-propionamide] the “SC1.5 (concentration of activator that produced a 50% increase in the activity of GK)” value was 0.021 µM. With O=C(Nc1ccn(CCO)n1)[C@H](CC1CCCC1)N1CC(Oc2c(F)cccc2F)=CC1=O [Example 89, (S)-3-Cyclopentyl-2-[4-(2,6-difluoro-phenoxy)-2-oxo-2,5-dihydro-pyrrol-1-yl]-N-[1-(2-hydroxy-ethyl)-1H-pyrazol-3-yl]-propionamide] the “SC1.5 (concentration of activator that produced a 50% increase in the activity of GK)” value was 0.05 µM. For CC(C)(O)Cn1ccc(NC(=O)[C@H](CC2CCCCC2)N2CC(Oc3cccc4c3OCCO4)=CC2=O)n1 [Example 33, (S)-3-Cyclohexyl-2-[4-(2,3-dihydro-benzo[1,4]dioxin-5-yloxy)-2-oxo-2,5-dihydro-pyrrol-1-yl]-N-[1-(2-hydroxy-2-methyl-propyl)-1H-pyrazol-3-yl]-propionamide], the “SC1.5 (concentration of activator that produced a 50% increase in the activity of GK)” value was 0.035 µM. In the case of CC(C)(O)Cn1ccc(NC(=O)[C@H](C[C@@H]2CCCCO2)N2CC(Oc3c(F)cccc3F)=CC2=O)n1 [Example 262, (S)-2-[4-(2,6-Difluoro-phenoxy)-2-oxo-2,5-dihydro-pyrrol-1-yl]-N-[1-(2-hydroxy-2-methyl-propyl)-1H-pyrazol-3-yl]-3-tetrahydro-pyran-2-yl-propionamide], the “SC1.5 (concentration of activator that produced a 50% increase in the activity of GK)” value is reported as 0.33 µM. With CC(C)(O)Cn1ccc(NC(=O)C(C[C@H]2C[C@@H](C)C2)N2CC(Oc3ccccc3Cl)=CC2=O)n1 (stereo partly drawn) [Example 217, 2-[4-(2-Chloro-phenoxy)-2-oxo-2,5-dihydro-pyrrol-1-yl]-N-[1-(2-hydroxy-2-methyl-propyl)-1H-pyrazol-3-yl]-3-(cis-3-methyl-cyclobutyl)-propionamide] the “SC1.5 (concentration of activator that produced a 50% increase in the activity of GK)” value was 0.137 µM. CC(C)C[C@@H](C(=O)Nc1ccn(CC(C)(C)O)n1)N1CC(Oc2ccccc2F)=CC1=O [Example 167, (S)-2-[4-(2-Fluoro-phenoxy)-2-oxo-2,5-dihydro-pyrrol-1-yl]-4-methyl-pentanoic acid [1-(2-hydroxy-2-methyl-propyl)-1H-pyrazol-3-yl]-amide] was tested, and the “SC1.5 (concentration of activator that produced a 50% increase in the activity of GK)” value was 0.206 µM. With CC(C)(O)Cn1ccc(NC(=O)[C@H](CC2CCCC2)N2CC(OCc3ccccc3)=CC2=O)n1 [Example 14, (S)-2-(4-Benzyloxy-2-oxo-2,5-dihydro-pyrrol-1-yl)-3-cyclopentyl-N-[1-(2-hydroxy-2-methyl-propyl)-1H-pyrazol-3-yl]-propionamide] the “SC1.5 (concentration of activator that produced a 50% increase in the activity of GK)” value was 0.368 µM. COC[C@H](C)OC1=CC(=O)N([C@@H](CC2CCCC2)C(=O)Nc2ccn(CC(C)(C)O)n2)C1 [Example 13, (S)-3-Cyclopentyl-N-[1-(2-hydroxy-2-methyl-propyl)-1H-pyrazol-3-yl]-2-[4-((S)-2-methoxy-1-methyl-ethoxy)-2-oxo-2,5-dihydro-pyrrol-1-yl]-propionamide] was tested, and the “SC1.5 (concentration of activator that produced a 50% increase in the activity of GK)” value was 4.062 µM.
